19 molecules from EP0970067B1, “(METHYLSULFONYL)PHENYL-2-(5H)-FURANONES WITH OXYGEN LINK AS COX-2 INHIBITORS” (Merck Frosst Canada & Co., priority 1997, dated 1998) can be followed below.

Structures are written as SMILES. pIC50: −log10 of the molar value.

Assay [1] has as its target T1, COX-2 (Homo sapiens, UniProt P35354).
T1 sequence (P35354 18-604): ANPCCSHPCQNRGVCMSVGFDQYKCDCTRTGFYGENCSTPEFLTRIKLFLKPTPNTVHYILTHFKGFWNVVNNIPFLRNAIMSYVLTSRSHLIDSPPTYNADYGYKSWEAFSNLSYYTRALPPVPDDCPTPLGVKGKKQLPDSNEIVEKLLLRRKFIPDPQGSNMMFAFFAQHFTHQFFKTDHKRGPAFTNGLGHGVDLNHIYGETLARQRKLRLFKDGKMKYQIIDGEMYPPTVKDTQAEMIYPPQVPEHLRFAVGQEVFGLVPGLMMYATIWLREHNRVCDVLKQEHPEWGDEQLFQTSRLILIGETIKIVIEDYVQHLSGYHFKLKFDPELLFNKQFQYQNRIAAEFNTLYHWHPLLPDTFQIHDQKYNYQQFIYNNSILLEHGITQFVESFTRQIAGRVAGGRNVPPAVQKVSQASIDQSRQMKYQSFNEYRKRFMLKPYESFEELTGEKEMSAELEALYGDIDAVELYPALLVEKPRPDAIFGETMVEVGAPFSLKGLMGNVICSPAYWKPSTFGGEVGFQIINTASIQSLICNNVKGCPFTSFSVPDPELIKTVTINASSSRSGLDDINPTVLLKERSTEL
Description: Whole cell COX-2 assay using CHO transfected cell line (PGE2 radioimmunoassay). Type of assay: cell-based. Details: expressed in transfected cells; host or cells: CHO [hCOX-2], stably transfected with pCDNAIII. Conditions: CHO [hCOX-2] cells; PGE2 synthesis in response to arachidonic acid. As for the experimental part:
Compounds are tested as inhibitors of cyclooxygenase activity in whole cell cyclooxygenase assays. These assays measure prostaglandin E2 synthesis in response to arachidonic acid, using a radioimmunoassay. Cells used for these assays are chinese hamster ovary (CHO) cell lines which have been stably transfected with an eukaryotic expression vector […] containing either the human Cox-1 or Cox-2 CDNA's. U937 cell microsomes are also used to measure Cox-1 activity.
Chinese hamster ovary (CHO) cell lines which have been stably transfected with an eukaryotic expression vector pCDNAIII containing either the human COX-1 or COX-2 cDNA's are used for the assay. These cell lines are referred to as CHO [hCOX-1] and CHO [hCOX-2], respectively. For cyclooxygenase assays, CHO[hCOX-1] cells from suspension cultures and CHO[hCOX-2] cells prepared by trypsinization of adherent cultures are harvested by centrifugation (300 x g, 10 min) and washed once in HBSS containing 15 mM HEPES, pH 7.4, and resuspended in HBSS, 15 mM HEPES, pH 7.4, at a cell concentration of 1.5 x 10^6 cells/ml. Drugs to be tested are dissolved in DMSO to 66.7-fold the highest test drug concentration. […] Cells (0.3 x 10^6 cells in 200 µl) are preincubated with 3 µl of the test drug or DMSO vehicle for 15 min at 37°C. Working solutions of peroxide-free AA (5.5 µM and 110 µM AA for the CHO [hCOX-1] and CHO [COX-2] assays, respectively) are prepared by a 10-fold dilution of a concentrated AA solution in ethanol into HBSS containing 15 mM HEPES, pH 7.4.
In the assay, inhibition is determined by measuring the amount of prostaglandin E2 (PGE2) synthesized in the presence of arachidonic acid, cyclooxygenase-1 or cyclooxygenase-2 and a putative inhibitor.

Assay [2] addresses T1, COX-2. Kind of assay: Human whole blood assay, COX-2 (LPS-induced PGE2 production). The assay is classed as cell-based. Details: endogenous in cells; host or cells: fresh heparinized human whole blood from volunteers, stimulated with LPS. Conditions: LPS 100 µg/ml, 24 hours at 37°C, read-out: COX-2 (IC50) HWB. The text has this:
As well, platelets in whole blood contain a large amount of the COX-1 enzyme. Immediately following blood clotting, platelets are activated through a thrombin-mediated mechanism. This reaction results in the production of thromboxane B2 (TxB2) via activation of COX-1. Thus, the effect of test compounds on TxB2 levels following blood clotting can be examined and used as an index for COX-1 activity. Therefore, the degree of selectivity by the test compound can be determined by measuring the levels of PGE2 after LPS induction (COX-2) and TxB2 following blood clotting (COX-1) in the same assay.
Fresh blood is collected in heparinized tubes by venipuncture from both male and female volunteers. The subjects have no apparent inflammatory conditions and have not taken any NSAIDs for at least 7 days prior to blood collection. Plasma is immediately obtained from a 2mL blood aliquot to use as blank (basal levels of PGE2). The remaining blood is incubated with LPS (100 µg/ml final concentration, Sigma Chem, #L-2630 from E. coli; diluted in 0.1% BSA (Phosphate buffered saline) for 5 minutes at room temperature. Five hundred µL aliquots of blood are incubated with either 2µL of vehicle (DMSO) or 2µL of a test compound at final concentrations varying from 10nM to 30µM for 24 hours at 37°C. At the end of the incubation, the blood is centrifuged at 12,000 x g for 5 minutes to obtain plasma. A 100µL aliquot of plasma is mixed with 400µL of methanol for protein precipitation. The supernatant is obtained and is assayed for PGE2 using a radioimmunoassay kit (Amersham, RPA#530) after conversion of PGE2 to its methyl oximate derivative according to the manufacturer's procedure.

The test system of a further assay is Rat Paw Edema. Kind of assay: Rat paw edema assay (carrageenan-induced). Type of assay: in vivo, Male Sprague-Dawley rats. Conditions: po, 1 hr before subplantar carrageenan, paw volume measured three hr later. As for the experimental part: Male Sprague-Dawley rats (150-200 g) are fasted overnight and are given, po, either vehicle (1% methocel or 5% Tween 80) or a test compound. One hr later, a line is drawn using a permanent marker at the level above the ankle in one hind paw to define the area of the paw to be monitored. The paw volume (V0) is measured using a plethysmometer (Ugo-Basile, Italy) based on the principle of water displacement. The animals are then injected subplantarly with […] of 1% carrageenan solution in saline (FMC Corp, Maine) into the paw using an insulin syringe with a 25-gauge needle (i.e. […] carrageenan per paw). Three hr later, the paw volume (V3) is measured and the increases in paw volume (V3 - VO) are calculated. The animals are sacrificed by CO2 asphyxiation and the absence or presence of stomach lesions scored. Data is compared with the vehicle-control values and percent inhibition calculated. All treatment groups are coded to eliminate observer bias.
(In general: In the carrageenan paw model, swelling and tenderness develop within hours.)

In general, pIC50 refers to −log10 of the IC50, conventionally taken in molar units. Regarding `CC1(C)OC(=O)C(OCC2(CO)CC2)=C1c1ccc(S(C)(=O)=O)cc1` [Example 21, 3-{[1-(hydroxymethyl)cyclopropyl]methoxy}-5,5-dimethyl-4-(4-methylsulfonylphenyl)-2-5H-furan-2-one], the pIC50 against COX-2 [1] is 6.22; on COX-2 [2] it was 6.05.

Take `C=C(C)COC1=C(c2ccc(S(C)(=O)=O)cc2)C(C)(C)OC1=O` [Example 18, 5,5-dimethyl-3-(2-methylallyloxy)-4-(4-methylsulfonylphenyl)-5H-furan-2-one]: the pIC50 on COX-2 [2] is above 6.40.

In the case of `CC(CO)OC1=C(c2ccc(S(C)(=O)=O)cc2)C(C)(C)OC1=O` (stereo not drawn) [Example 12, 3-(2-Hydroxy-1-methylethoxy)-5,5-dimethyl-4-(4-methylsulfonyl-phenyl)-5H-furan-2-one], the pIC50 against COX-2 [1] is 6.30; on COX-2 [2], 5.33.

On to `C#CCOC1=C(c2ccc(S(C)(=O)=O)cc2)C(C)(C)OC1=O` [Example 14, 5,5-Dimethyl-4-(4-methylsulfonylphenyl)3-(2-propynyloxy)-5H-furan-2-one], for which the pIC50 on COX-2 [1] is 6.30; at COX-2 [2], 5.29.

On to `CC1(C)OC(=O)C(OC2CCCC2=O)=C1c1ccc(S(C)(=O)=O)cc1` (stereo not drawn) [Example 24, 3-((2-oxocyclopentyl)oxy)-5,5-dimethyl-4-(4-methylsulfonylphenyl)-5H-furan-2-one], for which the figures for the pIC50 against COX-2 [1] and at COX-2 [2] were 6.40 and 6.10, respectively.

In the case of `C=C(C)OC1=C(c2ccc(S(C)(=O)=O)cc2)C(C)(C)OC1=O` [Example 7, 3-(Isopropenyloxy)-5,5-dimethyl-4-(4-methylsulfonylphenyl)-5H-furan-2-one], the pIC50 at COX-2 [1] was 7.15; at COX-2 [2], 5.68.

Take `C=CCOC1=C(c2ccc(S(C)(=O)=O)cc2)C(C)(C)OC1=O` [Example 15, 3-(Allyloxy)-5,5-dimethyl-4-(4-methylsulfonylphenyl)-5H-furan-2-one]: the values for the pIC50 against COX-2 [1] and at COX-2 [2] were 6.70 and 5.74, respectively.

For `C=CC(C)(O)COC1=C(c2ccc(S(C)(=O)=O)cc2)C(C)(C)OC1=O` (stereo not drawn) [Example 5, 3-((2-hydroxy-2-methyl-3-butenyl)oxy)-5,5-dimethyl-4-(4-methyl-sulfonyl)phenyl-5H-furan-2-one], the values for the pIC50 against COX-2 [1] and at COX-2 [2] were 7.10 and 6.22, respectively.

As for `CC1(C)OC(=O)C(OC2CCCC2(F)F)=C1c1ccc(S(C)(=O)=O)cc1` (stereo not drawn) [Example 25], the pIC50 on COX-2 [2] is above 6.40.

One may read the ED50 as the dose that gives a 50% effect, or the effect in half of the subjects. Lower therefore signals greater potency. On to `C[C@@H](CO)COC1=C(c2ccc(S(C)(=O)=O)cc2)C(C)(C)OC1=O` [Example 8, 3-(((2S)-3-hydroxy-2-methylpropyl)oxy)-5,5-dimethyl-4(4-methyl-sulfonylphenyl)-5H-furan-2-one], for which the pIC50 on COX-2 [1] and on COX-2 [2] was 6.30 each time. In addition, in the assay on Rat Paw Edema, the ED50 was 3.1 mg/kg.

For the molecule `CC1(C)OC(=O)C(OC2CCC3(CC2)OCCO3)=C1c1ccc(S(C)(=O)=O)cc1` [Example 16, 3-(1,4-dioxaspiro[4.5]dec-8-yloxy)-5,5-dimethyl-4-(4-methylsulfonyl-phenyl)-5H-furan-2-one], the pIC50 at COX-2 [1] is 6.40.

Take `C=CC(C)OC1=C(c2ccc(S(C)(=O)=O)cc2)C(C)(C)OC1=O` (stereo not drawn) [Example 1, 5,5-Dimethyl-3-((1-methylallyl)oxy)-4-(4-methylsulfonylphenyl)-5H-furan-2-one]: the values for the pIC50 at COX-2 [1] and on COX-2 [2] were 7.30 and 5.72, respectively.

Regarding `C#CC(C)OC1=C(c2ccc(S(C)(=O)=O)cc2)C(C)(C)OC1=O` (stereo not drawn) [Example 3, 5,5-Dimethyl-3-((1-methyl-2-propynyl)oxy)-4-(4-methylsulfonylphenyl)-5H-furan-2-one], the ED50 in the assay on Rat Paw Edema was 2.4 mg/kg.

With `CC1(C)OC(=O)C(OCC2(CF)CC2)=C1c1ccc(S(C)(=O)=O)cc1` [Example 23, 3-{[1-(fluoromethyl)cyclopropyl]methoxy}-5,5-dimethyl-4-(4-methylsulfonylphenyl)-5H-furan-2-one], in the assay with Rat Paw Edema, the 50% effect level (ED50) was put at a dose of 5.9 mg/kg.

Turning to `CC1(COC2=C(c3ccc(S(C)(=O)=O)cc3)C(C)(C)OC2=O)CC1` [Example 19, 5,5-Dimethyl-3-[(1-methylcyclopropyl)methoxy]-4-(4-methylsulfonyl-phenyl)-5H-furan-2-one], the pIC50 at COX-2 [2] is above 6.40.

In turn, `CC1(C)OC(=O)C(OC(C(F)(F)F)C(F)(F)F)=C1c1ccc(S(C)(=O)=O)cc1` [Example 2, 5,5-Dimethyl-3-(1,1,1,3,3,3-hexafluoropropoxy)-4-(4-methylsulfonyl-phenyl)-5H-furan-2-one] showed an ED50 in the assay on Rat Paw Edema of 1 mg/kg.

Take `C[C@H](CO)COC1=C(c2ccc(S(C)(=O)=O)cc2)C(C)(C)OC1=O` [Example 9, 3-(((2R)-3-hydroxy-2-methylpropyl)oxy)-5,5-dimethyl-4-(4-methylsulfonylphenyl)-5H-furan-2-one]: the pIC50 at COX-2 [1] is 6.40; at COX-2 [2], above 6.40.

As for `C=C(CF)COC1=C(c2ccc(S(C)(=O)=O)cc2)C(C)(C)OC1=O` [Example 20, 3-{[2-(fluoromethyl)allyl]oxy}-5,5-dimethyl-4-(4-methylsulfonyl-phenyl)-5H-furan-2-one], the pIC50 is 6.70 against COX-2 [1] and 6.22 on COX-2 [2].

As to `CC1(C)OC(=O)C(OC2CCC(F)(F)CC2)=C1c1ccc(S(C)(=O)=O)cc1` [Example 17], the pIC50 on COX-2 [1] is 6.52; on COX-2 [2] it was 6.22. The ED50 in the assay with Rat Paw Edema is 0.9 mg/kg.
